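Test compounds were applied to cells in 96-well plates for 48 hours at 5 doses. TGI denotes the concentration required for complete inhibition of growth.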
Columns and labels:
Test in all cases: NCI-60 cell line screen, 48 h
[1] = system: LXFL 529 NSCLC
[2] = system: SK-MEL-5 melanoma
[3] = system: TK-10 renal
[4] = system: EKVX NSCLC
[5] = system: OVCAR-5 ovarian
[6] = system: SNB-78 CNS
[7] = system: MCF7 breast
[8] = system: MDA-MB-231 breast
[9] = system: HCC-2998 colon
[10] = system: HOP-92 NSCLC
[11] = system: HOP-18 NSCLC
[12] = system: KM20L2 colon

SMILES	TGI [1]	TGI [2]	TGI [3]	TGI [4]	TGI [5]	TGI [6]	TGI [7]	TGI [8]	TGI [9]	TGI [10]	TGI [11]	TGI [12]
Cc1cc(N=C2C=C(Nc3cc(C)on3)C(=O)c3ccccc32)no1	> 100 µM	15.9 µM	> 100 µM	> 100 µM	> 100 µM	68.1 µM	63 µM	28.7 µM	> 100 µM	52.6 µM	92.2 µM	> 100 µM
c1ccc(Nc2nnc(-c3nsc4ccccc34)o2)cc1	> 100 µM	> 100 µM	> 100 µM	> 100 µM	> 100 µM	> 100 µM	–	–	> 100 µM	> 100 µM	> 100 µM	> 100 µM
Clc1ncnc2c1ncn2CCCCCCCCCCCCn1cnc2c(Cl)ncnc21	17.5 µM	17.5 µM	54.1 µM	33 µM	72.7 µM	11.2 µM	–	–	19.5 µM	19.4 µM	58.3 µM	30 µM
